Values joined by “and” are separate entries in the source; they are usually repeats but may differ in a detail not shown here. Equal entries are not always repeated. “Also recorded” adds a separate entry of the source.
How the values were obtained:
[1] = Phase 1: safety (adverse events) in SCD patients; type: in vivo, human
Experimental: In the SD cohort, 7 pts (2 males, 5 females, all HbSS) received 700 mg Compound 1 (n=5) or placebo (n=2).
All SCD patients who received a single 700 mg dose of Compound 1 or placebo were monitored for adverse events for 7 days. The incidence of treatment emergent adverse events (TEAEs) in SCD patients receiving Compound 1 (700 mg) or placebo are reported in Table 23. Six TEAEs were reported in 4 patients; all TEAEs were grade 1 and transient. Specifically, six TEAEs were reported in 4 of 7 (57%) patients, including 3 TEAEs (arthralgia, headache, palpitations) in 2 of 5 (40%) pts receiving Compound 1 and 3 TEAEs (back pain, myalgia, pruritis) in 2 of 2 (100%) pts receiving placebo; all TEAEs were grade 1 and transient. […] One possibly related TEAE (palpitations) occurred about 8 hours post dose. No other symptoms were observed, and the palpitations resolved in <1 minute. […] The single 700 mg dose of Compound 1 was considered tolerable, and the first multiple dose SCD cohort was initiated.
Based on data from the MAD1 (300 mg once daily for 14 days), Compound 1 is well-tolerated in patients with SCD. In all, eighteen TEAEs were reported in 7 of 9 patients in the MAD1 (300 mg once daily) cohort (N=9). These included (a) eight Grade 1 TEAEs, including 3 patients c/o headache, 1 each of nausea, constipation, somnolence, increased LDH and increased AST, of which two AEs considered to be possibly related to study treatment were reported by one patient each (1 AE of headache and 1 AE of nausea); (b) six Grade 2 TEAEs, including 3 uncomplicated sickle pain events (in 2 patients), 1 patient with N/V and 1 increased reticulocytes, of which no AEs were considered related to study treatment, all AEs of pain events were considered unrelated and consistent with each patient's SCD pain history, and all AEs were treated with patient's standard home pain medications (no SAE/no hospitalization); and (c) one Grade 4 TEAE of elevated creatine kinase, unrelated to study treatment. Non-treatment-related AEs were consistent with events experienced in this patient population. No treatment-related serious AEs were reported.

[2] = molecular target: T1, wt-PKR in mature human erythrocytes (Homo sapiens, UniProt P30613); assay: Cell assay: PKR activation in human RBCs (Biovision Pyruvate Kinase Assay); type: cell-based; conditions: 3 hr treatment
T1 construct: host or cells: purified human RBCs from donors
Experimental: The activation of wt-PKR by Compound 1 in mature human erythrocytes ex vivo was evaluated in purified RBCs purchased from Research Blood Components. Cells treated with Compound 1 for 3 hr in glucose-containing media were washed, lysed, and assayed using a Biovision Pyruvate Kinase Assay (K709-100). The assay was repeated multiple times to account for donor-to-donor variability and the relatively narrow dynamic range.

[3] = tested on: estradiol and testosterone levels; assay: Circulating estradiol and testosterone in healthy subjects, 14 days; type: in vivo, human; conditions: up to 14 days, 100-300 mg BID or 400 mg QD
Experimental: Effects on circulating levels of estradiol and testosterone in male and female healthy subjects receiving Compound 1 or placebo for a treatment period of 14 days were evaluated. Compound 1 was administered twice daily (BID) at dose levels of 100 mg, 200 mg, and 300 mg, and once daily (QD) at a dose level of 400 mg. Each dosing cohort was comprised of 9 subjects treated with Compound 1 and 3 subjects treated with placebo. Testosterone and estradiol levels were assessed prior to dosing (baseline), and then on days 8, 14 and 17.

[4] = tested on: ATP blood levels; assay: Phase 1: blood ATP in SCD patients; type: in vivo, human
Experimental: In this study, SAD/MAD cohorts are randomized (3 to 1) to receive Compound 1 or placebo (P). Compound 1 was evaluated first in 4 healthy SAD cohorts and 4 healthy MAD (14-day dosing period) cohorts. Based on the safety, and PK/PD profile from HS, Compound 1 is then evaluated in 1 SCD SAD cohort and 2 SCD MAD cohorts. Specifically, based on the safety and pharmacokinetic/pharmacodynamics (PK/PD) profile in healthy volunteer studies, Compound 1 is evaluated in patients (pts) with SCD, first in a single dose (SD or SAD) cohort and then in multiple-dose (MD or MAD) cohorts (14-day and 12-week). Safety assessments include AEs, vital signs, ECGs and laboratory parameters. PK/PD blood sampling was performed on Day 1 (SAD/MAD) and Day 14 (MAD) and up to 72 h after the last dose and at the end-of-study visit. PD parameters included 2,3-DPG, ATP, and p50 in all cohorts with additional PD studies (including oxygen scan) performed only in the SCD cohorts. PD parameters included 2,3-DPG, ATP, p50, RBC deformability with controlled deoxygenation and reoxygenation (Lorrca® oxygen scan) and varying osmolality (Lorrca® osmoscan)). To maintain study blind, pt identifiers were removed when needed.
The onset of the increase in ATP blood levels after a single 700 mg dose of Compound 1 was faster in SCD patients than in healthy volunteers, while the onset of the decrease in 2,3-DPG blood levels was slower.
The following procedures are employed for the analysis of ATP and 2,3-DPG in human whole blood K2EDTA using a protein precipitation extraction procedure and analysis by LC-MS/MS.
The following procedures are used for sample extraction prior to analysis via LC-MS/MS. 15.0 μL of the calibration standards, quality controls, matrix blanks, and samples are aliquoted into a 96-well plate. 50.0 μL of the internal standard spiking solution is added to all samples on the plate, with the exception of the matrix blank samples; 50.0 μL of water is added to the matrix blank samples. Subsequently, 150 μL of water is added to all samples on the plate. The plate is then covered and agitated by vortex at high speed for ten minutes, after which 750 μL of methanol is added to all samples on the plate. The plate is covered and agitated by vortex for approximately 1 minute. The plate is then centrifuged at approximately 3500 RPM at approximately 4° C. for five minutes. After centrifugation, a liquid handler is used to transfer 50 μL of each sample to a new 96-well plate, and 200 μL of acetonitrile is added to all samples on the plate. The newly prepared plate is covered and agitated by vortex for approximately 1 minute. The plate is then centrifuged at approximately 3500 RPM at approximately 4° C. for 2 minutes.

T1 sequence (P30613 whole entry): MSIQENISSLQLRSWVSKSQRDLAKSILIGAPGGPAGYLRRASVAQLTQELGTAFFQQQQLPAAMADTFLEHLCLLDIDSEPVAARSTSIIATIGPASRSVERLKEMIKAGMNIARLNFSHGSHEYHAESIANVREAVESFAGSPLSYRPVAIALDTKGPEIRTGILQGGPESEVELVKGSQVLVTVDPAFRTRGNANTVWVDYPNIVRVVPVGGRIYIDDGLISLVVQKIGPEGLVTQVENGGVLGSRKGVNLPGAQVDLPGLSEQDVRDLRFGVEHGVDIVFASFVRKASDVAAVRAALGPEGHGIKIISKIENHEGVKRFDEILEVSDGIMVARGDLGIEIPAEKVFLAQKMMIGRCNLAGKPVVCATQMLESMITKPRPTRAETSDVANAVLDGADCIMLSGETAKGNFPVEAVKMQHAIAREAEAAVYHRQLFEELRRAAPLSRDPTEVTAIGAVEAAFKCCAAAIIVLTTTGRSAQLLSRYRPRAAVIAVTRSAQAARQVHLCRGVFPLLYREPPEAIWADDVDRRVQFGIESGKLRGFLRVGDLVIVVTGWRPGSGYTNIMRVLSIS

Q: For `O=C([C@H](CO)c1ccccc1)N1CC2=C(C1)CN(S(=O)(=O)c1cnc3c(c1)OCCO3)C2` (single isomer, unassigned) [Compound 1], which “Any TEAE, n (%)” value ([1]; SCD 300 mg × 14 days (n = 7)) is on record?
A: 6 (86%) n (%)

Q: What about the “Any serious adverse event (SAE), n (%)” value ([1]; SCD 300 mg × 14 days (n = 7)) of the same molecule?
A: 0 n (%)

Q: And the “Related to study drug, n (%)” value ([1]; SCD 300 mg × 14 days (n = 7))?
A: 2 (29%) n (%)

Q: And the tolerability ([1]; SCD 400 mg QD, 84 days (12 weeks), open-label)?
A: well-tolerated

Q: What about the “serious adverse events / TEAEs leading to withdrawal” value ([1]; SCD SD cohort) of the same molecule?
A: No serious adverse events (SAEs) or TEAEs leading to pt withdrawal were reported

Q: And the “Any TEAE, n (%)” value ([1]; SCD single 700 mg (N = 5))?
A: 2 (40) n (%)

Q: And the “Related to study drug, n (%)” value ([1]; SCD single 700 mg (N = 5))?
A: 1 (20) n (%)

Q: And the “Max − Min (%), Mean” value ([2]; mean of replicates)?
A: < 100%

Q: And the “Max − Min (%)” value ([2]; single replicates)?
A: <125% and <150% and <100% and <50%

Q: What about the “testosterone and estradiol levels” value [3] of the same molecule?
A: no effect on estradiol and testosterone levels; also recorded: No effect on testosterone or estradiol levels; also recorded: no statistically significant changes and no clinically meaningful trends

Q: What about the “mean percentage change in ATP blood levels” value (from here on “mean percentage change”) ([4]; SCD 300 mg QD, Day 1, 0 h after first daily dose) of the same molecule?
A: 0%

Q: What about the “mean percentage change” value ([4]; SCD 300 mg QD, Day 1, 24 h after first daily dose) of the same molecule?
A: 14%

Q: What about the “mean percentage change” value ([4]; SCD 300 mg QD, Day 14, 0 h after first daily dose) of the same molecule?
A: 47%

Q: And the “mean percentage change” value ([4]; SCD 300 mg QD, Day 14, 6 h after first daily dose)?
A: 44%

Q: What about the “mean percentage change” value ([4]; SCD 300 mg QD, Day 14, 24 h after first daily dose) of the same molecule?
A: 45%

Q: And the “mean percentage change” value ([4]; SCD 300 mg QD, Day 14, 48 h after first daily dose)?
A: 35%

Q: And the “mean percentage change” value ([4]; SCD single 700 mg, 0 h after dose)?
A: 0%

Q: And the “mean percentage change” value ([4]; SCD single 700 mg, 6 h after dose)?
A: 14%

Q: What about the “mean percentage change” value ([4]; SCD single 700 mg, 24 h after dose) of the same molecule?
A: 30%

Q: And the “mean percentage change” value ([4]; SCD single 700 mg, 48 h after dose)?
A: 30%

Q: And the “mean percentage change” value ([4]; SCD single 700 mg, 72 h after dose)?
A: 32%

Q: And the “lag of maximum increase in blood ATP behind maximum plasma concentration” value ([4]; SCD single 700 mg, FIG. 54A)?
A: at least 24 hours

Q: What about the “increase in ATP blood concentrations” value ([4]; SCD, 24 hours after single 700-mg dose, FIG. 46A) of the same molecule?
A: 30%

— patent US12128035B2, “Activating pyruvate kinase R” (Novo Nordisk Health Care AG, priority 2021, dated 2024)
